Measured values from patent US4795826A, “Ortho-phenylenediamine compounds” (priority 1986, dated 1989).

Columns and labels:
P388 leukemia = P388 leukemia in vivo (increase in lifespan of mice, i.p. tumour); conditions: for ILSmax (percentage increase in lifespan), marked * / ILSmax (percentage increase in lifespan): P388, at OD on days 1, 5, 9, >20% statistically significant; for active (P388): P388, at the stated dose; for ILSmax (percentage increase in lifespan): values without asterisk, controls 11 days
Lewis lung carcinoma = Lewis lung carcinoma in vivo (increase in lifespan of mice, i.v. tumour); conditions: Lewis lung; for ILS (percentage increase in lifespan), marked * / ILS (percentage increase in lifespan): at OD on days 1, 5, 9, >40% statistically significant; for active (Lewis lung): at the stated dose; for ILS (percentage increase in lifespan): values without asterisk, controls 17 days

Structure (SMILES)	active (P388) (P388 leukemia)	ILSmax (percentage increase in lifespan) (P388 leukemia)	other results
CNc1cc(NS(C)(=O)=O)ccc1Nc1c2ccccc2nc2cc(OC)ccc12 [Compound 4]	Y		ILSmax (percentage increase in lifespan), marked * (P388 leukemia): 140%
CS(=O)(=O)Nc1ccc(Nc2c3ccccc3nc3ccccc23)c(NCCO)c1 [Compound 27]	Y	89%	
CNc1cc(NS(C)(=O)=O)ccc1Nc1c2ccccc2nc2cc(Br)ccc12 [Compound 7]	Y	94%	
CNc1cc(NC(=O)OC)ccc1Nc1c2ccccc2nc2cc(F)ccc12 [Compound 53]	Y	110%	
Cc1cccc2c(Nc3ccc(NS(C)(=O)=O)cc3N(C)CCO)c3ccccc3nc12 [Compound 46]	Y		ILSmax (percentage increase in lifespan), marked * (P388 leukemia): 152%
CS(=O)(=O)Nc1ccc(Nc2c3ccccc3nc3cc(Br)ccc23)c(NCCO)c1 [Compound 28]	Y	117%	
CNc1cc(NC(=O)OC)ccc1Nc1c2ccccc2nc2cc(Cl)ccc12 [Compound 54]	Y	104%	
CNc1cc(NS(C)(=O)=O)ccc1Nc1c2cccc(C)c2nc2c(C)cccc12 [Compound 25]	Y	107%	
CNc1cc(NS(C)(=O)=O)ccc1Nc1c2ccc(Br)cc2nc2c(C)cccc12 [Compound 21]	Y	122%	
COC(=O)Nc1ccc(Nc2c3ccccc3nc3ccccc23)c(N(C)C)c1 [Compound 59]	Y	51%	
CNc1cc(NS(C)(=O)=O)ccc1Nc1c2ccccc2nc2cc(F)ccc12 [Compound 5]	Y		ILSmax (percentage increase in lifespan), marked * (P388 leukemia): 157%
CNc1cc(NS(C)(=O)=O)ccc1Nc1c2ccccc2nc2cc(NC(=O)OC)ccc12 [Compound 11]	Y		ILSmax (percentage increase in lifespan), marked * (P388 leukemia): 135%
CNc1cc(NC(=O)OC)ccc1Nc1c2ccccc2nc2ccccc12 [Compound 50]	Y	132%	ILS (percentage increase in lifespan), marked * (Lewis lung carcinoma): 122%; active (Lewis lung) (Lewis lung carcinoma): Y
CNc1cc(NS(=O)(=O)c2ccc(N)cc2)ccc1Nc1c2ccccc2nc2cc(Br)ccc12 [Compound 63]	Y	115%	
Cc1cccc2c(Nc3ccc(NS(C)(=O)=O)cc3NCC(O)CO)c3ccccc3nc12 (stereo not drawn) [Compound 31]	Y	83%	
CNc1cc(NS(C)(=O)=O)ccc1Nc1c2ccc(OC)cc2nc2c(C)cccc12 [Compound 17]	Y	102%	
CNc1cc(NS(C)(=O)=O)ccc1Nc1c2ccccc2nc2cc(C)ccc12 [Compound 3]	Y	83%	
CNc1cc(NC(=O)OC)ccc1Nc1c2ccccc2nc2cc(Br)ccc12 [Compound 55]	Y	101%	
CNc1cc(NC(=O)OC)ccc1Nc1c2ccc(Br)cc2nc2c(C)cccc12 [Compound 57]	Y	97%	ILS (percentage increase in lifespan), marked * (Lewis lung carcinoma): 82%; active (Lewis lung) (Lewis lung carcinoma): Y
CNc1cc(NS(C)(=O)=O)ccc1Nc1c2ccc(C)cc2nc2c(C)cccc12 [Compound 16]	Y	92%	
CN(CCO)c1cc(NS(C)(=O)=O)ccc1Nc1c2ccccc2nc2ccccc12 [Compound 45]	Y		ILSmax (percentage increase in lifespan), marked * (P388 leukemia): 100%
CNc1cc(NS(=O)(=O)c2ccc(N)cc2)ccc1Nc1c2ccccc2nc2ccccc12 [Compound 62]	Y	104%	
CNc1cc(NC(=O)OC)ccc1Nc1c2ccc(Cl)cc2nc2c(C)cccc12 [Compound 56]	Y		ILSmax (percentage increase in lifespan), marked * (P388 leukemia): 151%; ILS (percentage increase in lifespan) (Lewis lung carcinoma): 100%; active (Lewis lung) (Lewis lung carcinoma): Y
CN(C)c1cc(NS(C)(=O)=O)ccc1Nc1c2ccccc2nc2ccccc12 [Compound 32]	Y		ILSmax (percentage increase in lifespan), marked * (P388 leukemia): 212%; cured animals (Lewis lung carcinoma; at OD): all cured; ILS (percentage increase in lifespan) (Lewis lung carcinoma): > 250%; active (Lewis lung) (Lewis lung carcinoma): Y
CNC(=O)c1cccc2c(Nc3ccc(NS(C)(=O)=O)cc3NC)c3ccccc3nc12 [Compound 15]	Y	82%	

Structure (SMILES)	active (P388) (P388 leukemia)	ILSmax (percentage increase in lifespan) (P388 leukemia)	other results
COC(=O)Nc1ccc(Nc2c3ccccc3nc3ccccc23)c(NCCO)c1 [Compound 51]	Y	121%	
Nc1ccc(S(=O)(=O)Nc2ccc(Nc3c4ccccc4nc4ccccc34)c(NCCO)c2)cc1 [Compound 65]	Y	50%	
CNc1cc(NS(C)(=O)=O)ccc1Nc1c2ccccc2nc2cc([N+](=O)[O-])ccc12 [Compound 9]	Y	70%	
CNc1cc(NC(=O)OC)ccc1Nc1c2ccccc2nc2cc(C)ccc12 [Compound 52]	Y	86%	
CS(=O)(=O)Nc1ccc(Nc2c3ccccc3nc3ccccc23)c(NCC(O)CO)c1 (stereo not drawn) [Compound 30]	Y	84%	
O=S(=O)(Nc1ccc(Nc2c3ccccc3nc3ccccc23)c(NCCO)c1)c1ccccc1 [Compound 61]	Y	81%	
CNc1cc(NS(C)(=O)=O)ccc1Nc1c2ccc(Cl)cc2nc2c(OC)cccc12 [Compound 20]	Y	105%	
CNc1cc(NS(C)(=O)=O)ccc1Nc1c2ccc(Cl)cc2nc2c(C)cccc12 [Compound 19]	Y		ILSmax (percentage increase in lifespan), marked * (P388 leukemia): 128%; ILS (percentage increase in lifespan) (Lewis lung carcinoma): 126%; active (Lewis lung) (Lewis lung carcinoma): Y
CNc1cc(NC(=O)OC)ccc1Nc1c2ccccc2nc2c(C)cccc12 [Compound 58]	Y	114%	ILS (percentage increase in lifespan), marked * (Lewis lung carcinoma): 48%; active (Lewis lung) (Lewis lung carcinoma): Y
Cc1cccc2c(Nc3ccc(NS(C)(=O)=O)cc3NCCO)c3ccccc3nc12 [Compound 29]	Y		ILSmax (percentage increase in lifespan), marked * (P388 leukemia): 159%
CNc1cc(NS(C)(=O)=O)ccc1Nc1c2ccccc2nc2c(OC)cccc12 [Compound 13]	Y		ILSmax (percentage increase in lifespan), marked * (P388 leukemia): 118%; ILS (percentage increase in lifespan) (Lewis lung carcinoma): 153%; active (Lewis lung) (Lewis lung carcinoma): Y
CNc1cc(NS(C)(=O)=O)ccc1Nc1c2ccc(F)cc2nc2c(C)cccc12 [Compound 18]	Y		ILSmax (percentage increase in lifespan), marked * (P388 leukemia): 152%; ILS (percentage increase in lifespan), marked * (Lewis lung carcinoma): 143%; active (Lewis lung) (Lewis lung carcinoma): Y
CNc1cc(NS(C)(=O)=O)ccc1Nc1c2ccccc2nc2cc(Cl)ccc12 [Compound 6]	Y		ILSmax (percentage increase in lifespan), marked * (P388 leukemia): 149%
CNc1cc(NS(C)(=O)=O)ccc1Nc1c2ccccc2nc2cc(I)ccc12 [Compound 8]	Y	80%	
CNc1cc(NS(C)(=O)=O)ccc1Nc1c2cccc(OC)c2nc2c(OC)cccc12 [Compound 26]	Y	84%	
CNC(=O)c1cccc2c(Nc3ccc(NS(C)(=O)=O)cc3NC)c3cccc(C)c3nc12 [Compound 24]	Y	94%	
CNc1cc(NS(=O)(=O)c2ccc(N)cc2)ccc1Nc1c2ccccc2nc2c(C)cccc12 [Compound 64]	Y	139%	
CNc1cc(NP(=O)(OC)OC)ccc1Nc1c2ccccc2nc2cc(Br)ccc12 [Compound 48]	Y	77%	
CNc1ccc2c(Nc3ccc(NS(C)(=O)=O)cc3NC)c3ccccc3nc2c1 [Compound 10]	Y		ILSmax (percentage increase in lifespan), marked * (P388 leukemia): 208%
CNC(=O)c1cccc2c(Nc3ccc(NS(C)(=O)=O)cc3NC)c3ccc(Cl)cc3nc12 [Compound 23]	Y	59%	
CNc1cc(NP(=O)(OC)OC)ccc1Nc1c2ccccc2nc2c(C)cccc12 [Compound 49]	Y	91%	
CNc1cc(NC(=O)Oc2ccccc2)ccc1Nc1c2ccccc2nc2ccccc12 [Compound 66]	Y	71%	
CNc1cc(NP(=O)(OC)OC)ccc1Nc1c2ccccc2nc2ccccc12 [Compound 47]	Y	118%	
CNc1cc(NS(C)(=O)=O)ccc1Nc1c2ccc(C)cc2nc2c(OC)cccc12 [Compound 22]	Y	122%	
CNc1cc(NS(=O)(=O)c2ccccc2)ccc1Nc1c2ccccc2nc2ccccc12 [Compound 60]	Y	117%	
